Source: patent US20100183563A1, “DENTINOGENESIS PROMOTER AND DENTINOGENIC PULP-CAPPING MATERIAL” (ORGAN TECHNOLOGIES, INC., priority 2007, published 2010)

Columns and labels:
Format in all cases: cell-based, human
[1] = test system: dental pulp stem cells (DPSCs); experiment: Proliferation of dental pulp stem cells, cell number by the MTS method; conditions: for effect on proliferation of DPSCs compared with the control: 1 μM, Example 2, FIG. 5
Protocol: Dental pulp stem cells (DPSCs) were isolated in accordance with a method of Gronthos et al. (Proc. Natl. Acad. Sci. USA, 97: 13625-30, 2000) from a human extracted tooth that was submitted with informed consent under the permission of Okayama University Dental School Ethics Committee.
Specifically, pulp obtained from an extracted human tooth was enzyme-treated for 30 minutes at 37° C. with 3 mg/ml type 1 collagenase (Worthington Biochemicals Corp.) and 4 mg/ml dispase (Roche Diagnostic/Boehringer Mannheim Corp.), and then cultured using α-MEM culture medium containing 10% fetal bovine serum (FBS), L-ascorbic acid (0.1 mM), L-glutamine (2 mM), penicillin (100 μg/ml), and streptomycin (100 μg/ml).
Specifically, the DPSCs prepared above (1) were cultured under 5% CO2 at 37° C. in α-MEM culture medium including 10% fetal bovine serum (FBS) containing SVS at a concentration of 1 μM, L-ascorbic acid (0.1 mM), L-glutamine (2 mM), penicillin (100 μg/ml), and streptomycin (100 μg/ml). The culture medium was exchanged twice a week, and the number of cells on […] was indirectly evaluated using the MTS method (Barltrop, J. A. et al. 5-(3-carboxymethoxyphenyl)-2-(4,5-dimenthylthiazoly)-3-(4-sulfophenyl)tetrazolium, inner salt (MTS) and related analogs of 3-(4,5-dimethylthiazolyl)-2,5-diphenyl-tetrazolium bromide (MTT) reducing to purple water-soluble formazans as cell-viability indicators. Bioorg. & Med. Chem. Lett. 1, 611, 1991).
On day 0, day 3, and day 5 from the beginning of cultivation, the cell number of DPSCs was measured using the MTS method.
On day 5 from the beginning of cultivation, the cell number of DPSCs was measured using the MTS method.
Specifically, in Example 1, section (2), dental pulp stem cells (DPSCs) were cultured in the presence of each of the following: (a) simvastatin (1 μM) (simvastatin added group); (b) simvastatin (1 μM) and mevalonate (1 mM) (mevalonate added group); and (c) simvastatin (1 μM), mevalonate (1 mM) and Fasudil (10 μM) (Fasudil combined use group). On day 0, day 3, and day 5 from the beginning of cultivation, the cell number of DPSCs was measured using the MTS method.

[2] = test system: osteocalcin (OCN) gene expression in dental pulp stem cells (DPSCs); experiment: Gene expression of OCN (marker of calcification) in DPSCs by RT-PCR; conditions: for gene expression of OCN compared with the control and the comparison (BMP-2): 1 μM, day 14, Example 2, FIG. 6
Protocol: (§1) Specifically, the DPSCs prepared above (1) were cultured under a 5% CO2 gas phase at 37° C. in α-MEM culture medium including 10% fetal bovine serum (FBS) containing SVS at a concentration of 1 μM, L-ascorbic acid (0.1 mM), L-glutamine (2 mM), penicillin (100 μg/ml), and streptomycin (100 μg/ml). Total RNA was collected from cells obtained on day 3, day 7, and day 10 from the beginning of cultivation, and gene expression of dentin sialophosphoprotein (DSPP), i.e., an odontoblast-specific marker (Ritchie H H et al. J. Biol. Chem., 269:3698-702, 1994; Butler W T et al. Matrix., 12:343-51, 1992), and gene expression of osteocalcin (OCN), i.e., a marker of calcification (Bronckers A L et al. Connect Tissue Res., 22:65-70, 1989) were evaluated using qualitative RT-PCR (Narayanan K et al., J. Biol. Chem., 281(28):19064-71, 2006).
Dental pulp stem cells (DPSCs) were cultured in a manner similar to Example 1, section (3), using simvastatin (1 μM), fluvastatin (1 μM), mevastatin (1 μM), lovastatin (1 μM), and plavastatin (200 μM) respectively as HGM-CoA reductase inhibitors. Gene expression of OCN, i.e., a marker of calcification was evaluated on day 14, using qualitative RT-PCR.

[3] = test system: dentin sialophosphoprotein (DSPP) gene expression in dental pulp stem cells (DPSCs); experiment: Gene expression of DSPP (odontoblast-specific marker) in DPSCs by RT-PCR; conditions: SVS 1 μM, p=0.0111
Protocol: as §1

O=C(O)C[C@H](O)C[C@H](O)/C=C/c1c(C2CC2)nc2ccccc2c1-c1ccc(F)cc1 [pitavastatin]
effect on proliferation of DPSCs compared with the control ([1]; day 5): inhibited proliferation of DPSCs with a significant difference

CC[C@H](C)C(=O)O[C@H]1CCC=C2C=C[C@H](C)[C@H](CC[C@@H]3C[C@@H](O)CC(=O)O3)[C@H]21 [mevastatin]
effect on proliferation of DPSCs compared with the control ([1]; day 5): inhibited proliferation of DPSCs with a significant difference
gene expression of OCN compared with the control and the comparison (BMP-2) [2]: increase in gene expression of OCN

CCC(C)(C)C(=O)O[C@H]1C[C@@H](C)C=C2C=C[C@H](C)[C@H](CC[C@@H]3C[C@@H](O)CC(=O)O3)[C@H]21 [simvastatin]
increase in gene expression of DSPP [3]: 10.9 fold
proliferation of dental pulp stem cells (DPSCs) ([1]; SVS 1 μM, day 5 from the beginning of cultivation, vs control (PBS), significant decrease, p<0.0001): 0.73 fold
increase in gene expression of OCN compared with the BMP-2 ([2]; SVS 1 μM vs BMP-2 100 ng/ml, DPSCs, p=0.0002, Scheffe's multiple comparison test): 7.4 fold
increase in gene expression of OCN compared with the control ([2]; SVS 1 μM, DPSCs, p=0.0004, Scheffe's multiple comparison test): 18.8 fold

CC(C)n1c(/C=C/C(O)CC(O)CC(=O)O)c(-c2ccc(F)cc2)c2ccccc21 (stereo not drawn) [fluvastatin]
effect on proliferation of DPSCs compared with the control ([1]; day 5): inhibited proliferation of DPSCs with a significant difference
gene expression of OCN compared with the control and the comparison (BMP-2) [2]: increase in gene expression of OCN

CC[C@H](C)C(=O)O[C@H]1C[C@@H](C)C=C2C=C[C@H](C)[C@H](CC[C@@H]3C[C@@H](O)CC(=O)O3)[C@H]21 [lovastatin]
effect on proliferation of DPSCs compared with the control ([1]; day 5): inhibited proliferation of DPSCs with a significant difference
gene expression of OCN compared with the control and the comparison (BMP-2) [2]: increase in gene expression of OCN

CC(O)(CCO)CC(=O)O (stereo not drawn) [mevalonate]
effect of mevalonate supply on simvastatin-induced inhibition of DPSC proliferation ([1]; simvastatin 1 μM + mevalonate 1 mM, day 5, FIG. 8): disappearance of the cell proliferation inhibiting effect

O=S(=O)(c1cccc2cnccc12)N1CCCNCC1 [Fasudil]
effect on proliferation of DPSCs ([1]; Fasudil at not less than 10 μM (tested 1, 10, 100 μM), day 5, FIG. 7): inhibited proliferation of DPSCs
effect on cell proliferation of DPSCs, Fasudil combined use group ([1]; simvastatin 1 μM + mevalonate 1 mM + Fasudil 10 μM, day 5, FIG. 8): greater inhibition of cell proliferation of DPSCs than the comparison

B1: Noggin: a BMP inhibitor (R&D systems) (protein, UniProt Q13253 28-232, looked up)
Noggin: QHYLHIRPAPSDNLPLVDLIEHPDPIFDPKEKDLNETLLRSLLGGHYDPGFMATSPPEDRPGGGGGAAGGAEDLAELDQLLRQRPSGAMPSEIKGLEFSEGLAQGKKQRLSKKLRRKLQMWLWSQTFCPVLYAWNDLGSRFWPRYVKVGSCFSKRSCSVPEGMVCKPSKSVHLTVLRWRCQRRGGQRCGWIPIQYPIISECKCSC
effect on cellular proliferation of DPSCs compared with the control ([1]; day 5, Example 4, FIG. 9, statin = simvastatin 1 μM): an effect on cellular proliferation of DPSCs was not observed
